From US20180125816A1, “SAROGLITAZAR MAGNESIUM FOR THE TREATMENT OF CHYLOMICRONEMIA SYNDROME” (CADILA HEALTHCARE LIMITED, priority 2015, published 2018)

Tests used:
Zucker fa/fa rats [1] = experiment: Severe hypertriglyceridemia induced by Triton WR-1339 (inhibition of LPL) in Zucker fa/fa rats, serum triglycerides; format: in vivo, rat; conditions: for % Change in AUC-TG vs Vehicle Control: AUC 0-48 hr; for reduction in serum triglycerides (TG): 0-hr time point, after repeat dose treatment
Method: The obese Zucker (fatty) rat is one of the oldest models of NIDDM, resembling human type II diabetes, i.e. diabetes associated with obesity. It is characterized by hyperphagia and associated with mild hyperglycaemia, insulin resistance, mild glucose intolerance, hyperlipidaemia specially hypertriglyceridemia. When the non-ionic detergent Triton WR-1339 is injected into Zucker fa/fa rats, there is a progressive accumulation of triacylglycerols in the plasma/serum (Friedman & Byers, 1953; Otway & Robinson, 1967). […] So the nonionic detergent, Triton WR-1339 (Triton), has commonly been used to inhibit LPL for this purpose to produce the condition of severe hypertriglyceridemia similar to familial chylomicronemia syndrome and Type V hyperlipoproteinemia.
In this study 20 male and 14 female Zucker fa/fa rats of 6-10 weeks of age were selected for the and on day-0, body weight of animals recorded and blood samples (approximately 80 μl to 90 μl) was collected via retro orbital route using isoflurane as inhalation anaesthesia, serum separated and serum triglyceride estimated and 24 animals were selected and grouped on the basis of serum triglyceride level as primary parameter as below
From hyphen or day-1 to Day-14, compounds were formulated in 5% PEG+5% Tween 80+90% (0.5%) Na-CMC in such, a way that the final volume of administration was 2 ml/kg of body wt, and animals were dosed orally once daily as per grouping details.
On day-14 blood samples were collected after 1 hour of dosing, serum separated and serum triglycerides (TG) was estimated. Animals were being kept on 24 hours fasting after completion of day-14 activities. On day-15, after 24 hours of fasting, body wt. of all animals was recorded. Then formulations of treatment items were prepared in vehicle and Triton WR-1339 prepared in 0.9% saline for intraperitoneal injection at dose of 250 mg/kg per 5 ml. Basal blood samples collected and animals were administered orally with respective treatment and immediately injected intraperitoneally with Triton WR-1339. Blood samples (approx, 1 ml per sample) were also collected at 6 hr, 24 hours and 48 hours after triton administration and serum triglycerides levels were estimated using Cobas C 311 clinical chemistry autoanalyser from Roche Diagnostics using commercial diagnostic kits.
% change at 6-hr, 24-hr and 48-hr for TG vs Vehicle Control was calculated using MS using MS Excel. The area under curve for TG, AUC-TG (0-48), was calculated using Graph Pad® software.

Zucker fa/fa rats [2] = experiment: Fatty tolerance test with 13C-palmitate/corn oil after 14 days repeated dosing: hyper-chylomicronemia and chylomicron dynamics; format: in vivo, rat; conditions: for 13C Palmitate / Palmitate total: adipose tissue
Method: In this study, the effect of Compound (1) on hyper-chylomicronemia and chylomicron dynamics in Zucker fa/fa rats after 14 days repeated dose administration was evaluated.
Zucker (fa/fa) fatty rat of 7-8 weeks of age were purchased from Charles River Laboratory and single-housed under a pathogen free environment with constant room temperature (20-22° C.) and relative humidity (40-50%) and a 6:00 pm-6:00 am dark-light cycle. Rats were provided with free access to food (Lab Diet 5L0D, an irradiated regular rodent diet containing 23% of protein and 4.5% of fat) and water. Initial body weight and body composition (using a NMR analyzer) were measured 6 days post-arrival. The rats were then randomly divided into four dosing groups based BW and fat mass as below—
Dosing was begun at 9-10 weeks of age, once daily (8-10 am) by oral gavage for 14 days. On the day-14 of dosing, a final body composition (after dosing) was measured. On day-15, all animals were given a fatty tolerance test (FTT) after being fasted overnight (15-16 hours), followed by blood and tissue collection.
Fatty Tolerance Test Procedure (FTT): • 1. Following an overnight fast, rats were orally gavaged with a mixture of ^13C-Palmitic Acid (1 and corn oil (1 g of^13C-P dissolved in 5 ml of corn oil) at 5 ml/kg·bw. • 2. Blood samples were collected via tail vein bleeding using 3×300 ul EDTA tubes at the following time points:
0 hour (initial), 1 hour, 2 hour, 3 hour, 4 hour, 5 hour, 6 hour, 8 hour
After the 8 hour bleeding, rats were knocked down in a drop jar using isoflurane. Once sedated, the rats were hooked up to a Midmark Matrx Anesthesia isoflurane machine that dispensed isoflurane vapor at […] with an oxygen flow rate of 1 L/min. Organs and tissues were dissected and frozen immediately in liquid nitrogen and stored at −80° C. LCMS and GCMS were used to assess the incorporation of ^13C lipids into plasma and tissue lipids (n=5 for tissue metabolomics studies).

CC(C)OC(=O)C(C)(C)Oc1ccc(C(=O)c2ccc(Cl)cc2)cc1 [Fenofibrate, reference compound]
reduction in AUC-TG Vs Vehicle control group (Zucker fa/fa rats [1]; 65 mg/kg): 11%
AUC-TG (0-48 hr.) (Zucker fa/fa rats [1]; 65 mg/kg p.o. once daily): 93412.8 ± 12023.5 mg·h/dL
Serum Triglycerides after Triton WR-1339 administration (Zucker fa/fa rats [1]; 65 mg/kg p.o. once daily, 0 hr): 324.9 ± 45.3 mg/dL
Serum Triglycerides after Triton WR-1339 administration (Zucker fa/fa rats [1]; 65 mg/kg p.o. once daily, 6 hr): 1048.1 ± 147.4 mg/dL
Serum Triglycerides after Triton WR-1339 administration (Zucker fa/fa rats [1]; 65 mg/kg p.o. once daily, 24 hr): 2871.5 ± 357.4 mg/dL
Serum Triglycerides after Triton WR-1339 administration (Zucker fa/fa rats [1]; 65 mg/kg p.o. once daily, 48 hr): 1630.0 ± 329.8 mg/dL
% Change in TG Vs Vehicle Control (Zucker fa/fa rats [1]; 65 mg/kg p.o., 0 hr after Triton WR-1339): −37.4 ± 8.7%
% Change in TG Vs Vehicle Control (Zucker fa/fa rats [1]; 65 mg/kg p.o., 6 hr after Triton WR-1339): 34.9 ± 19.0%
% Change in TG Vs Vehicle Control (Zucker fa/fa rats [1]; 65 mg/kg p.o., 48 hr after Triton WR-1339): −25.0 ± 15.2%
% Change in 13C Palmitate uptake in adipose tissue Vs Vehicle Control (Zucker fa/fa rats [2]; 150 mg/kg p.o.): −14%
Plasma TG in FTT (Zucker fa/fa rats [2]; 150 mg/kg p.o. 14 days, 120 min): 502.2 ± 8.1 mg/dL
13C Palmitate (Zucker fa/fa rats [2]; 150 mg/kg p.o.): 2.88 ± 0.57 Nanomole/mg protein
Palmitate total (Zucker fa/fa rats [2]; 150 mg/kg p.o.): 6.90 ± 0.24 micromole/mg protein

CCO[C@@H](Cc1ccc(OCCn2c(C)ccc2-c2ccc(SC)cc2)cc1)C(=O)O [Compound (1), Saroglitazar Magnesium]
reduction in AUC-TG Vs Vehicle control group (Zucker fa/fa rats [1]; 1 mg/kg): 48%
AUC-TG (0-48 hr.) (Zucker fa/fa rats [1]; 1 mg/kg p.o. once daily): 54241.5 ± 11182.3 mg·h/dL
Serum Triglycerides after Triton WR-1339 administration (Zucker fa/fa rats [1]; 1 mg/kg p.o. once daily, 0 hr): 188.3 ± 15.6 mg/dL
Serum Triglycerides after Triton WR-1339 administration (Zucker fa/fa rats [1]; 1 mg/kg p.o. once daily, 6 hr): 438.5 ± 52.7 mg/dL
Serum Triglycerides after Triton WR-1339 administration (Zucker fa/fa rats [1]; 1 mg/kg p.o. once daily, 24 hr): 1797.2 ± 331.3 mg/dL
Serum Triglycerides after Triton WR-1339 administration (Zucker fa/fa rats [1]; 1 mg/kg p.o. once daily, 48 hr): 889.5 ± 353.9 mg/dL
% Change in TG Vs Vehicle Control (Zucker fa/fa rats [1]; 1 mg/kg p.o., 0 hr after Triton WR-1339): −63.7 ± 3.0%
% Change in TG Vs Vehicle Control (Zucker fa/fa rats [1]; 1 mg/kg p.o., 6 hr after Triton WR-1339): −43.6 ± 6.8%
% Change in TG Vs Vehicle Control (Zucker fa/fa rats [1]; 1 mg/kg p.o., 24 hr after Triton WR-1339): −44.7 ± 10.2%
% Change in TG Vs Vehicle Control (Zucker fa/fa rats [1]; 1 mg/kg p.o., 48 hr after Triton WR-1339): −59.1 ± 16.3%
% Change in AUC-TG vs Vehicle Control (Zucker fa/fa rats [1]; 1 mg/kg p.o.): −48.4 ± 10.6%
reduction in serum triglycerides (TG) (Zucker fa/fa rats [1]; 1 mg/kg): 64%
reduction in AUC-TG Vs Vehicle control group (Zucker fa/fa rats [1]; 10 mg/kg): 63%
AUC-TG (0-48 hr.) (Zucker fa/fa rats [1]; 10 mg/kg p.o. once daily): 39050.3 ± 6922.7 mg·h/dL
Serum Triglycerides after Triton WR-1339 administration (Zucker fa/fa rats [1]; 10 mg/kg p.o. once daily, 0 hr): 93.2 ± 7.9 mg/dL
Serum Triglycerides after Triton WR-1339 administration (Zucker fa/fa rats [1]; 10 mg/kg p.o. once daily, 6 hr): 328.9 ± 111.9 mg/dL
Serum Triglycerides after Triton WR-1339 administration (Zucker fa/fa rats [1]; 10 mg/kg p.o. once daily, 24 hr): 1463.8 ± 265.3 mg/dL
Serum Triglycerides after Triton WR-1339 administration (Zucker fa/fa rats [1]; 10 mg/kg p.o. once daily, 48 hr): 340.4 ± 151.7 mg/dL
% Change in TG Vs Vehicle Control (Zucker fa/fa rats [1]; 10 mg/kg p.o., 0 hr after Triton WR-1339): −82.0 ± 1.5%
% Change in TG Vs Vehicle Control (Zucker fa/fa rats [1]; 10 mg/kg p.o., 6 hr after Triton WR-1339): −57.7 ± 14.4%
% Change in TG Vs Vehicle Control (Zucker fa/fa rats [1]; 10 mg/kg p.o., 48 hr after Triton WR-1339): −84.3 ± 7.0%
% Change in AUC-TG vs Vehicle Control (Zucker fa/fa rats [1]; 10 mg/kg p.o.): −62.9 ± 6.6%
reduction in serum triglycerides (TG) (Zucker fa/fa rats [1]; 10 mg/kg): 82%
lowering of TG levels (in words) (Zucker fa/fa rats [1]; 1 and 10 mg/kg, all time points after Triton WR-1339): dose dependent lowering of TG levels at all-time points
blunting an increase in serum triglycerides (in words) (Zucker fa/fa rats [1]; compared to fenofibrate): significantly effective in blunting an increase in serum triglycerides
plasma triglyceride (TG) in FTT (in words) (Zucker fa/fa rats [2]; 0 and 2 hour post corn oil treatment): significantly reduced plasma triglyceride (TG)
% Change in 13C Palmitate uptake in adipose tissue Vs Vehicle Control (Zucker fa/fa rats [2]; 0.4 mg/kg p.o.): 86%
Plasma TG in FTT (Zucker fa/fa rats [2]; 0.4 mg/kg p.o. 14 days, 0 min): 330.5 ± 39.2 mg/dL
Plasma TG in FTT (Zucker fa/fa rats [2]; 0.4 mg/kg p.o. 14 days, 120 min): 389.2 ± 21.8 mg/dL
13C Palmitate (Zucker fa/fa rats [2]; 0.4 mg/kg p.o.): 6.20 ± 0.89 Nanomole/mg protein
Palmitate total (Zucker fa/fa rats [2]; 0.4 mg/kg p.o.): 7.14 ± 0.30 micromole/mg protein
% Change in 13C Palmitate uptake in adipose tissue Vs Vehicle Control (Zucker fa/fa rats [2]; 4 mg/kg p.o.): 247%
Plasma TG in FTT (Zucker fa/fa rats [2]; 4 mg/kg p.o. 14 days, 0 min): 84.7 ± 9.3 mg/dL
Plasma TG in FTT (Zucker fa/fa rats [2]; 4 mg/kg p.o. 14 days, 120 min): 171.3 ± 28.2 mg/dL
13C Palmitate (Zucker fa/fa rats [2]; 4 mg/kg p.o.): 11.57 ± 0.73 Nanomole/mg protein
Palmitate total (Zucker fa/fa rats [2]; 4 mg/kg p.o.): 6.60 ± 0.29 micromole/mg protein
fasting and postprandial TG levels (in words) (Zucker fa/fa rats [2]; conclusion of the study): significantly reduces fasting and postprandial TG levels
increase in accumulation of M+16 palmitate in adipose tissue (Zucker fa/fa rats [2]; high dose (4 mg/kg)): 247%
appearance of M+16 TG species TG (52:3) and TG (52:4) in plasma (in words) (Zucker fa/fa rats [2]; low (0.4 mg/kg) and high (4 mg/kg) dose): significantly attenuated the appearance of M+16 TG
gastrocnemius M+16 palmitate labeling (in words) (Zucker fa/fa rats [2]; low and high dose (0.4 and 4 mg/kg)): decreased gastrocnemius M+16 palmitate labeling
increase in accumulation of M+16 palmitate in adipose tissue (Zucker fa/fa rats [2]; low dose (0.4 mg/kg)): 86%
